Experiments:
Assay in all cases: relative viability (nuclei count vs DMSO), 5 days (fraction); higher = more cells survive
Tozasertib + AZD7762 = compound: Cc1cc(Nc2cc(N3CCN(C)CC3)nc(Sc3ccc(NC(=O)C4CC4)cc3)n2)n[nH]1 [Tozasertib] + NC(=O)Nc1cc(-c2cccc(F)c2)sc1C(=O)N[C@H]1CCCNC1 [AZD7762] (partner 0.2 µM)
In short: (§1)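 Relative viability divides the nuclei count in treated wells by that in vehicle wells. Lung cancer cell lines were seeded in 1536-well plates, dosed by pin tool the next day, and fixed and stained after 5 days in one step with final 0.05% Triton X-100, 1% formaldehyde and 1 ug/ml Hoechst. Dosing was a single drug or a fixed anchor-drug dose plus five library-drug doses (not always all listed) in √10 steps, and values are medians of duplicate plates imaged at 4×.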

Tozasertib + Pemetrexed = compound: Cc1cc(Nc2cc(N3CCN(C)CC3)nc(Sc3ccc(NC(=O)C4CC4)cc3)n2)n[nH]1 [Tozasertib] + Nc1nc2[nH]cc(CCc3ccc(C(=O)N[C@@H](CCC(=O)O)C(=O)O)cc3)c2c(=O)[nH]1 [Pemetrexed] (partner 0.2 µM)
In short: as §1

Tozasertib + Linsitinib = compound: Cc1cc(Nc2cc(N3CCN(C)CC3)nc(Sc3ccc(NC(=O)C4CC4)cc3)n2)n[nH]1 [Tozasertib] + C[C@]1(O)C[C@@H](c2nc(-c3ccc4ccc(-c5ccccc5)nc4c3)c3c(N)nccn32)C1 [Linsitinib] (partner 1 µM)
In short: as §1

Tozasertib + Decitabine = compound: Cc1cc(Nc2cc(N3CCN(C)CC3)nc(Sc3ccc(NC(=O)C4CC4)cc3)n2)n[nH]1 [Tozasertib] + Nc1ncn([C@H]2C[C@H](O)[C@@H](CO)O2)c(=O)n1 [Decitabine] (partner 2 µM)
In short: as §1

Tozasertib + Crizotinib = compound: Cc1cc(Nc2cc(N3CCN(C)CC3)nc(Sc3ccc(NC(=O)C4CC4)cc3)n2)n[nH]1 [Tozasertib] + C[C@@H](Oc1cc(-c2cnn(C3CCNCC3)c2)cnc1N)c1c(Cl)ccc(F)c1Cl [Crizotinib] (partner 1 µM)
In short: as §1

Cell Line | relative viability (Tozasertib + AZD7762; first compound 0.004 µM) | relative viability (Tozasertib + AZD7762; first compound 0.01265 µM) | relative viability (Tozasertib + AZD7762; first compound 0.04 µM) | relative viability (Tozasertib + AZD7762; first compound 0.1265 µM) | relative viability (Tozasertib + Pemetrexed; first compound 0.004 µM) | relative viability (Tozasertib + Pemetrexed; first compound 0.01265 µM) | relative viability (Tozasertib + Pemetrexed; first compound 0.04 µM) | relative viability (Tozasertib + Pemetrexed; first compound 0.1265 µM) | relative viability (Tozasertib + Linsitinib; first compound 0.004 µM) | relative viability (Tozasertib + Linsitinib; first compound 0.01265 µM) | relative viability (Tozasertib + Linsitinib; first compound 0.04 µM) | relative viability (Tozasertib + Decitabine; first compound 0.004 µM) | relative viability (Tozasertib + Decitabine; first compound 0.01265 µM) | relative viability (Tozasertib + Decitabine; first compound 0.04 µM) | relative viability (Tozasertib + Decitabine; first compound 0.1265 µM) | relative viability (Tozasertib + Crizotinib; first compound 0.004 µM) | relative viability (Tozasertib + Crizotinib; first compound 0.01265 µM) | relative viability (Tozasertib + Crizotinib; first compound 0.04 µM) | relative viability (Tozasertib + Crizotinib; first compound 0.1265 µM) | relative viability (Tozasertib + Linsitinib; first compound 0.1265 µM)
NCI-H647 | 0.567 | 0.418 | 0.43 | 0.0736 | 0.186 | 0.183 | 0.169 | 0.125 | 0.854 | 1.33 | 1.22 | 0.43 | 0.402 | 0.322 | 0.25 | 1.26 | 0.979 | 0.794 | 0.31 | 
LOU-NH91 | 0.733 | 0.719 | 0.838 | 0.64 | 0.421 | 0.409 | 0.372 | 0.39 | 0.573 | 0.954 | 1.03 | 0.681 | 0.791 | 0.812 | 0.762 | 0.619 | 0.703 | 0.754 | 0.722 | 0.947
LC-2-ad | 0.868 | 0.763 | 0.915 | 0.731 | 0.291 | 0.252 | 0.265 | 0.275 | 0.906 | 0.82 | 0.684 | 0.87 | 0.792 | 0.798 |  | 0.441 | 0.452 | 0.405 | 0.369 | 0.329
NCI-H358 | 0.393 |  | 0.475 | 0.227 | 0.179 | 0.164 | 0.181 | 0.145 | 0.787 | 0.69 | 0.651 | 0.246 | 0.196 | 0.228 | 0.0965 | 0.457 | 0.345 | 0.261 | 0.228 | 0.194
NCI-H1975 | 0.93 | 0.672 | 0.727 | 0.612 | 0.317 | 0.289 | 0.307 | 0.272 | 0.961 | 1.06 | 1.04 | 0.371 | 0.462 | 0.382 | 0.36 | 1.05 | 1.03 | 0.853 | 0.604 | 0.953
NCI-H2347 | 0.686 | 0.686 | 0.835 | 0.75 | 0.44 | 0.461 | 0.45 | 0.432 | 0.978 | 1 | 0.964 | 0.567 | 0.365 | 0.627 | 0.74 | 0.722 | 0.71 |  | 0.723 | 0.914
NCI-H838 | 0.881 | 0.971 | 0.925 |  | 0.263 | 0.257 | 0.249 | 0.232 | 1.07 | 0.972 | 1.15 | 0.464 | 0.458 | 0.453 | 0.253 | 0.939 | 0.863 | 0.898 | 0.706 | 0.861
H3255 | 0.837 | 0.786 | 0.884 | 0.684 | 0.519 | 0.579 | 0.567 | 0.552 | 0.862 | 0.758 | 1.04 | 0.71 | 0.475 | 0.592 | 0.558 | 0.801 | 0.765 | 1.01 | 0.769 | 0.817
LXF-289 | 1.12 | 1.02 | 1.04 | 0.619 | 0.972 | 0.824 | 0.842 | 0.859 | 0.994 | 0.883 | 0.868 | 0.378 | 0.405 | 0.337 | 0.262 |  | 0.758 | 0.717 | 0.161 | 0.554
A-427 | 0.796 | 0.799 | 0.715 | 0.409 | 1 |  | 0.973 | 0.75 | 1.16 | 0.996 | 1.12 | 0.563 | 0.528 | 0.627 | 0.426 | 0.882 | 0.985 | 0.788 | 0.469 | 0.826
LCLC-97TM1 | 0.166 | 0.194 | 0.164 | 0.211 | 0.191 | 0.157 | 0.15 | 0.18 |  | 0.204 | 0.155 | 0.222 | 0.232 | 0.235 | 0.185 |  | 0.288 | 0.257 | 0.189 | 0.163
HOP-62 | 0.505 | 0.485 | 0.613 | 0.289 | 0.396 | 0.299 | 0.32 | 0.362 | 1.05 | 0.876 |  | 0.213 | 0.234 | 0.194 | 0.196 | 1.03 | 0.964 | 0.941 | 0.776 | 1.09
HARA | 0.353 | 0.247 | 0.209 | 0.123 | 0.24 | 0.27 | 0.274 | 0.203 | 1 |  | 1.01 | 0.495 | 0.486 | 0.572 | 0.203 |  | 0.984 | 0.776 | 0.14 | 0.374
NCI-H1993 | 0.708 | 0.761 | 0.837 | 0.542 | 0.587 | 0.605 | 0.634 | 0.476 | 0.8 | 0.668 | 0.649 | 0.549 | 0.542 |  | 0.574 | 0.931 | 0.776 | 0.845 | 0.581 | 0.616
NCI-H460 | 0.548 | 0.657 | 0.737 |  | 0.0596 | 0.0601 | 0.0605 | 0.0623 | 0.738 | 0.751 | 0.787 | 0.456 | 0.53 | 0.493 | 0.284 | 0.871 | 0.874 | 0.767 | 0.197 | 0.149
BEN | 0.761 | 0.678 |  | 0.532 | 0.847 | 0.72 | 0.923 | 0.487 | 1.08 | 0.948 | 0.927 | 0.739 | 0.688 | 0.755 | 0.501 | 0.91 | 0.921 | 0.907 | 0.727 | 0.85

Source: the supplement of paper PMC10307832
